Assay results taken from patent US20250144067A1, “PERSONALIZED STARVATION THERAPY FOR CANCER” (Faeth Therapeutics, Inc., priority 2021, published 2025).
Structures can show the parent of a compound that is named as a salt.

Experiments:
[1] = system: NCI-H292 lung cancer cells; assay: FDA drug screening, complete media vs cholesterol-free media without statin (TABLE 1); format: cell-based, human
[2] = system: NCI-H292 lung cancer cells; assay: FDA drug screening, complete media vs cholesterol-free media with simvastatin (TABLE 2); format: cell-based, human; conditions: for Complete Media / Cholesterol-free media + simvastatin (0.04 μM): NCI-H292 cells
[3] = Complete minus Cholesterol-free, >0 enhanced anti-cancer activity, about 0 neutral, <0 antagonist
[4] = NCI-H292 cells, cholesterol-free media without statin, FDA drug library screen
[5] = NCI-H292 cells, complete media, FDA drug library screen
[6] = FDA library drug in complete media
[7] = complete media vs cholesterol-free media + simvastatin (0.04 μM), >0 enhanced anti-cancer activity, about 0 neutral, <0 antagonist
[8] = NCI-H292 cells, cholesterol-free media without statin
[9] = FDA library drug in cholesterol-free media with simvastatin 0.04 μM
[10] = FDA drug library screen, cholesterol-free media with simvastatin 0.04 μM
[11] = FDA drug library screen, complete media
[12] = complete media minus cholesterol-free media + simvastatin, >0 enhanced anti-cancer activity, about 0 neutral, <0 antagonist
[13] = Complete minus Cholesterol-free, greater than 0 enhanced anti-cancer activity, about 0 neutral, below 0 antagonist
[14] = NCI-H292 cells, FDA drug library screen, cholesterol-free media without statin
[15] = NCI-H292 cells, FDA drug library screen, complete media
[16] = Complete minus Cholesterol-free, greater than 0 enhanced anti-cancer activity, about 0 neutral, below 0 antagonists
[17] = NCI-H292 cells in complete media
[18] = drug in cholesterol-free media with simvastatin 0.04 μM
[19] = complete vs cholesterol-free media, greater than 0 enhanced anti-cancer activity, about 0 neutral, below 0 antagonists
[20] = cholesterol-free media with simvastatin 0.04 μM, FDA drug library screen (TABLE 2)
[21] = complete media, FDA drug library screen (TABLE 2)
[22] = complete media minus cholesterol-free media + simvastatin (0.04 μM), >0 enhanced anti-cancer activity, about 0 neutral, <0 antagonist

Molecule: C[C@@H]1CC[C@H]2[C@@H](C)C(=O)O[C@@H]3O[C@@]4(C)CC[C@@H]1[C@]32OO4 [Artemisinin]
- Difference [1, 3]: −0.06
- Cholesterol-free [1, 4]: 0.8489
- Complete [1, 5]: 0.7892
- Complete Media [2, 6]: 0.8603
- Difference [2, 7]: −0.76

Molecule: CCN(CC)CCOC(=O)C(c1ccccc1)c1ccccc1 [Adiphenine (hydrochloride)]
- Difference [1, 3]: −0.20
- Cholesterol-free [1, 8]: 1.088
- Complete ([1]; NCI-H292 cells, complete media): 0.8864
- Cholesterol-free media + simvastatin (0.04 μM) [2, 9]: 1.255
- Complete Media [2, 6]: 0.9527
- Difference [2, 7]: −0.30

Molecule: CCCN[C@H]1CCc2nc(N)sc2C1 [Pramipexole (dihydrochloride hydrate)]
- Difference [1, 3]: 0.05
- Cholesterol-free [1, 4]: 0.8255
- Complete [1, 5]: 0.873
- Cholesterol-free media + simvastatin (0.04 μM) [2, 10]: 1.173
- Complete Media [2, 11]: 1.35
- Difference [2, 12]: 0.18

Molecule: Safinamide (mesylate)
- Difference [1, 13]: −0.18
- Complete Media ([2]; drug in complete media): 0.843
- Difference [2, 7]: −0.20

Molecule: Cc1nc2n(c(=O)c1CCN1CCC(c3noc4cc(F)ccc34)CC1)CCCC2O (centres unmarked) [Paliperidone]
- Difference [1, 13]: −0.18
- Cholesterol-free [1, 14]: 0.8391
- Complete [1, 15]: 0.6569
- Cholesterol-free media + simvastatin (0.04 μM) [2, 9]: 1.086
- Complete Media [2, 6]: 0.8023
- Difference [2, 7]: −0.28

Molecule: Penbutolol (sulfate)
- Difference [1, 16]: −0.71
- Complete [1, 17]: 1.219
- Cholesterol-free media + simvastatin (0.04 μM) [2, 18]: 0.9562
- Complete Media ([2]; drug in complete media): 0.7448
- Difference [2, 7]: −0.21

Molecule: Cc1cccc(N(C)C(=S)Oc2ccc3ccccc3c2)c1 [Tolnaftate]
- Difference [1, 16]: −0.53
- Cholesterol-free ([1]; NCI-H292 cells in cholesterol-free media without statin): 1.723
- Complete [1, 17]: 1.191
- Cholesterol-free media + simvastatin (0.04 μM) [2, 18]: 1.419
- Complete Media ([2]; drug in complete media): 1.24
- Difference [2, 7]: −0.18

Molecule: C[N+](C)(C)CCOP(=O)([O-])OP(=O)([O-])OC[C@H]1O[C@@H](n2ccc(N)nc2=O)[C@H](O)[C@@H]1O.[Na+] [Citicoline (sodium)]
- Cholesterol-free [1, 8]: 1.151
- Complete ([1]; NCI-H292 cells, complete media): 0.8125
- Difference [1, 19]: −0.34
- Cholesterol-free media + simvastatin (0.04 μM) [2, 20]: 1.337
- Complete Media [2, 21]: 1.292
- Difference [2, 22]: −0.04

Molecule: Econazole (nitrate)
- Difference [1, 13]: −0.13
- Cholesterol-free [1, 14]: 0.9667
- Complete [1, 15]: 0.8375
- Cholesterol-free media + simvastatin (0.04 μM) [2, 10]: 0.1971
- Difference [2, 12]: 0.88

Molecule: COC(=O)c1ccc2c(c1)NC(=O)/C2=C(\Nc1ccc(N(C)C(=O)CN2CCN(C)CC2)cc1)c1ccccc1 [Nintedanib]
- Difference [1, 13]: −0.17
- Cholesterol-free [1, 14]: 0.7067
- Complete [1, 15]: 0.5362
- Cholesterol-free media + simvastatin (0.04 μM) [2, 20]: 0.7141
- Complete Media [2, 21]: 0.7297
- Difference [2, 22]: 0.02

Molecule: C(=C\c1ccccc1)/CN1CCN(C(c2ccccc2)c2ccccc2)CC1 [Cinnarizine]
- Cholesterol-free [1, 8]: 1.344
- Complete ([1]; NCI-H292 cells, complete media): 0.9213
- Difference [1, 19]: −0.42
- Cholesterol-free media + simvastatin (0.04 μM) ([2]; cholesterol-free media with simvastatin 0.04 μM, cell growth value in FDA drug screen): 1.061
- Difference [2, 12]: 0.11

Molecule: CC(=O)Nc1ccc(C(=O)O)cc1.CC(=O)Nc1ccc(C(=O)O)cc1.CC(=O)Nc1ccc(C(=O)O)cc1.CC(O)CN(C)C.CC(O)CN(C)C.CC(O)CN(C)C.O=c1[nH]cnc2c1ncn2[C@@H]1O[C@H](CO)[C@@H](O)[C@H]1O [Inosine pranobex]
- Difference ([1]; Complete minus Cholesterol-free, […]): −0.24
- Cholesterol-free [1, 8]: 1.096
- Complete ([1]; NCI-H292 cells, complete media): 0.8599
- Cholesterol-free media + simvastatin (0.04 μM) [2, 18]: 1.233
- Complete Media ([2]; drug in complete media): 0.9799
- Difference ([2]; complete media vs cholesterol-free media + simvastatin (0.04 μM), […]): −0.25

Molecule: Cc1cccc(C)c1N(CC(=O)Nc1ccc(-c2ncon2)cc1)C(=O)C1CCS(=O)(=O)CC1 [Amenamevir]
- Difference [1, 13]: −0.08
- Cholesterol-free [1, 14]: 0.9508
- Complete [1, 15]: 0.8718
- Cholesterol-free media + simvastatin (0.04 μM) [2, 10]: 0.9047
- Complete Media [2, 11]: 1.06
- Difference [2, 12]: 0.16

Molecule: Clebopride (malate)
- Difference [1, 3]: −0.29
- Cholesterol-free [1, 8]: 0.9703
- Complete ([1]; NCI-H292 cells, complete media): 0.6807
- Cholesterol-free media + simvastatin (0.04 μM) [2, 20]: 0.7532
- Complete Media [2, 21]: 0.7281
- Difference [2, 22]: −0.03

Molecule: O=C(O)[C@H]1/C(=C/CO)O[C@@H]2CC(=O)N21 [Clavulanate (lithium)]
- Difference [1, 3]: 0.07
- Cholesterol-free [1, 4]: 1.545
- Complete [1, 5]: 1.617
- Cholesterol-free media + simvastatin (0.04 μM) [2, 9]: 1.974
- Complete Media [2, 6]: 1.387
- Difference [2, 7]: −0.59
